# Measurements: BigSolDB 2.1
structure (smiles),measurement,setting,value
CC(=O)N(CC(O)CO)c1c(I)c(C(=O)NCC(O)CO)c(I)c(C(=O)NCC(O)CO)c1I (stereo not given),solubility (mole fraction),"in 1,4-dioxane, 288.15 K",5.7e-05
same,solubility (mole fraction),"in 1,4-dioxane, 293.15 K",6.9e-05
same,solubility (mole fraction),"in 1,4-dioxane, 298.15 K",8.3e-05
same,solubility (mole fraction),"in 1,4-dioxane, 303.15 K",0.0001
same,solubility (mole fraction),"in 1,4-dioxane, 308.15 K",0.000121
same,solubility (mole fraction),"in 1,4-dioxane, 313.15 K",0.000145
same,solubility (mole fraction),"in 1,4-dioxane, 318.15 K",0.000174
same,solubility (mole fraction),"in 1,4-dioxane, 323.15 K",0.000208
same,solubility (mole fraction),"in 2-butanone, 283.15 K",0.000148
same,solubility (mole fraction),"in 2-butanone, 288.15 K",0.000178
same,solubility (mole fraction),"in 2-butanone, 293.15 K",0.000211
same,solubility (mole fraction),"in 2-butanone, 298.15 K",0.000255
same,solubility (mole fraction),"in 2-butanone, 303.15 K",0.000301
same,solubility (mole fraction),"in 2-butanone, 308.15 K",0.000358
same,solubility (mole fraction),"in 2-butanone, 313.15 K",0.000425
same,solubility (mole fraction),"in 2-butanone, 318.15 K",0.00049
same,solubility (mole fraction),"in 2-butanone, 323.15 K",0.000566
same,solubility (mole fraction),"in DMSO, 293.15 K",0.000293
same,solubility (mole fraction),"in DMSO, 298.15 K",0.000357
same,solubility (mole fraction),"in DMSO, 303.15 K",0.000428
same,solubility (mole fraction),"in DMSO, 308.15 K",0.00051
same,solubility (mole fraction),"in DMSO, 313.15 K",0.000624
same,solubility (mole fraction),"in DMSO, 318.15 K",0.000737
same,solubility (mole fraction),"in DMSO, 323.15 K",0.000869
same,solubility (mole fraction),"in acetone, 283.15 K",0.000174
same,solubility (mole fraction),"in acetone, 288.15 K",0.000209
same,solubility (mole fraction),"in acetone, 293.15 K",0.000256
same,solubility (mole fraction),"in acetone, 298.15 K",0.000308
same,solubility (mole fraction),"in acetone, 303.15 K",0.000371
same,solubility (mole fraction),"in acetone, 308.15 K",0.000443
same,solubility (mole fraction),"in acetone, 313.15 K",0.000526
same,solubility (mole fraction),"in acetone, 318.15 K",0.00062
same,solubility (mole fraction),"in acetone, 323.15 K",0.000741
same,solubility (mole fraction),"in acetonitrile, 283.15 K",8.47e-05
same,solubility (mole fraction),"in acetonitrile, 288.15 K",0.000101
same,solubility (mole fraction),"in acetonitrile, 293.15 K",0.000123
same,solubility (mole fraction),"in acetonitrile, 298.15 K",0.000146
same,solubility (mole fraction),"in acetonitrile, 303.15 K",0.000175
same,solubility (mole fraction),"in acetonitrile, 308.15 K",0.00021
same,solubility (mole fraction),"in acetonitrile, 313.15 K",0.00025
same,solubility (mole fraction),"in acetonitrile, 318.15 K",0.000298
same,solubility (mole fraction),"in acetonitrile, 323.15 K",0.000354
same,solubility (mole fraction),"in cyclohexane, 283.15 K",9.38e-06
same,solubility (mole fraction),"in cyclohexane, 288.15 K",1.22e-05
same,solubility (mole fraction),"in cyclohexane, 293.15 K",1.55e-05
same,solubility (mole fraction),"in cyclohexane, 298.15 K",2e-05
same,solubility (mole fraction),"in cyclohexane, 303.15 K",2.51e-05
same,solubility (mole fraction),"in cyclohexane, 308.15 K",3.14e-05
same,solubility (mole fraction),"in cyclohexane, 313.15 K",3.89e-05
same,solubility (mole fraction),"in cyclohexane, 318.15 K",4.81e-05
same,solubility (mole fraction),"in cyclohexane, 323.15 K",5.96e-05
same,solubility (mole fraction),"in ethanol, 283.15 K",0.00113
same,solubility (mole fraction),"in ethanol, 288.15 K",0.0013
same,solubility (mole fraction),"in ethanol, 293.15 K",0.00148
same,solubility (mole fraction),"in ethanol, 298.15 K",0.00169
same,solubility (mole fraction),"in ethanol, 303.15 K",0.00192
same,solubility (mole fraction),"in ethanol, 308.15 K",0.00217
same,solubility (mole fraction),"in ethanol, 313.15 K",0.00244
same,solubility (mole fraction),"in ethanol, 318.15 K",0.00274
same,solubility (mole fraction),"in ethanol, 323.15 K",0.00306
same,solubility (mole fraction),"in ethyl acetate, 283.15 K",0.000126
same,solubility (mole fraction),"in ethyl acetate, 288.15 K",0.00015
same,solubility (mole fraction),"in ethyl acetate, 293.15 K",0.00018
same,solubility (mole fraction),"in ethyl acetate, 298.15 K",0.000215
same,solubility (mole fraction),"in ethyl acetate, 303.15 K",0.000256
same,solubility (mole fraction),"in ethyl acetate, 308.15 K",0.000301
same,solubility (mole fraction),"in ethyl acetate, 313.15 K",0.000355
same,solubility (mole fraction),"in ethyl acetate, 318.15 K",0.000414
same,solubility (mole fraction),"in ethyl acetate, 323.15 K",0.000481
same,solubility (mole fraction),"in isopropanol, 283.15 K",0.000389
same,solubility (mole fraction),"in isopropanol, 288.15 K",0.000456
same,solubility (mole fraction),"in isopropanol, 293.15 K",0.000555
same,solubility (mole fraction),"in isopropanol, 298.15 K",0.000674
same,solubility (mole fraction),"in isopropanol, 303.15 K",0.000806
same,solubility (mole fraction),"in isopropanol, 308.15 K",0.000966
same,solubility (mole fraction),"in isopropanol, 313.15 K",0.00115
same,solubility (mole fraction),"in isopropanol, 318.15 K",0.00137
same,solubility (mole fraction),"in isopropanol, 323.15 K",0.00165
same,solubility (mole fraction),"in n-butanol, 283.15 K",0.000235
same,solubility (mole fraction),"in n-butanol, 288.15 K",0.000287
same,solubility (mole fraction),"in n-butanol, 293.15 K",0.000342
same,solubility (mole fraction),"in n-butanol, 298.15 K",0.000416
same,solubility (mole fraction),"in n-butanol, 303.15 K",0.0005
same,solubility (mole fraction),"in n-butanol, 308.15 K",0.000601
same,solubility (mole fraction),"in n-butanol, 313.15 K",0.000723
same,solubility (mole fraction),"in n-butanol, 318.15 K",0.000866
same,solubility (mole fraction),"in n-butanol, 323.15 K",0.00103
same,solubility (mole fraction),"in n-propanol, 283.15 K",0.000715
same,solubility (mole fraction),"in n-propanol, 288.15 K",0.000804
same,solubility (mole fraction),"in n-propanol, 293.15 K",0.000911
same,solubility (mole fraction),"in n-propanol, 298.15 K",0.00104
same,solubility (mole fraction),"in n-propanol, 303.15 K",0.00119
same,solubility (mole fraction),"in n-propanol, 308.15 K",0.00137
same,solubility (mole fraction),"in n-propanol, 313.15 K",0.00156
same,solubility (mole fraction),"in n-propanol, 318.15 K",0.00181
same,solubility (mole fraction),"in n-propanol, 323.15 K",0.0021
same,solubility (mole fraction),"in toluene, 283.15 K",2.5e-05
same,solubility (mole fraction),"in toluene, 288.15 K",3.22e-05
same,solubility (mole fraction),"in toluene, 293.15 K",4.06e-05
same,solubility (mole fraction),"in toluene, 298.15 K",5.12e-05
same,solubility (mole fraction),"in toluene, 303.15 K",6.28e-05
same,solubility (mole fraction),"in toluene, 308.15 K",7.57e-05
same,solubility (mole fraction),"in toluene, 313.15 K",9.19e-05
same,solubility (mole fraction),"in toluene, 318.15 K",0.000112
same,solubility (mole fraction),"in toluene, 323.15 K",0.000134
